Measurements published in patent US4738803A, “Amino acid derivatives and their use as antidepressives and hypotensive agents” (priority 1981, dated 1988).
Like-named read-outs stand apart in the source and are kept apart here.

Legend:
[1] = target: enkephalinase; assay: Dosage of enkephalinasic (enkephalin dipeptidylcarboxypeptidasic) activity, effect of the inhibitors (striatal membrane fraction); format: biochemical, rat or mouse; details: 10 nM leucine-enkephalin ^3H, 0.1 mM puromycine, pH 7.4, 25° C, 15 min; read-out: 50% inhibitory concentration
Experimental: (I) Dosage of the "enkephalinasic" activity (enkephalin dipeptidylcarboxypeptidasic) and determination of the effect of the inhibitors
The enzyme preparation employed is a membrane fraction from the striatum of the rat or mouse.
This fraction is obtained by homogenization at 4° C. in 20 volumes of Tris-Hl buffer 0.05M (pH 7.4) followed by two successive centrifugations (1000 g×min. and 200,000 g×min.) at the end of which the sediment of the second centrifugation is retained. It is washed by resuspension in 10 ml of the buffer followed by centrifugation (200,000 g×min.) and the resulting sediment is in turn washed superficially to complete the removal soluble enzymes. The resulting membrane fraction is taken up into the buffer at 4° C. to obtain a suspension comprising about 1.5 mg of proteins per ml.
An aliquot sample (50 μl) of the membrane suspension is then incubated in a final volume of 100 μl at 25° C. in the presence of 10 nM leucine-enkephalin ^3 H (39 Ci/mmole), previously purified by column chromatography over Porapak Q(100-120 mesh, Waters Assoc.) and 0.1 mM puromycine, an aminopeptidase inhibitor. The incubation time is generally set at 15 min. so as to determine the initial rate of formation of tripeptide Tyr-Gly-Gly-^3 H caracteristic of the enkephalin dipeptidylcarboxypeptidasic (enkephalinasic) activity. The reaction is terminated by the addition of 25 μl of 0.2N HCl and the tripeptide is isolated by column chromatography over Polopak Q or on a thin layer of silica, according to the methods described by Malfroy et al (B. Malfroy, J. P. Swerts, C. Llorens and J. C. Schwartz, Neuro-Science Letters, 11, 329, 1979).
The results obtained with either method have always been consistent.
Determination of the radioactivity of the tripeptide is effected by liquid scintillation spectrometry.
The effect of the inhibitors is established by experiments with increasing concentrations of such materials, which leads to the determination of the 50% inhibitory concentrations calculated by means of data according to the method of Parker and Waud (J. Pharmacol. Exper. Ther. 177, 1, 1971). In some cases, the competitive nature of the inhibition was established by incubation experiments with a fixed concentration of the inhibitor and increasing concentrations of the substrate.

[2] = tested on: licking reflex of mice on a plate heated at 55° C; assay: Hot plate test: potentiation of the antalgic effect of D Ala2 Met Enkephalin; format: in vivo; details: for antagonism of the potentiating effect by Naloxone / potentiation of the effect of a subactive dosage (0.3γ) of D Ala2 Met Enkephalin: 30γ, in words; for potentiation of the effect of a subactive dosage (0.3γ) of D Ala2 Met Enkephalin: p<0.05; for increase in the licking time with respect to animals treated with DAla2 Met Enkephalin (0.3γ intraventricular): 30 mg/kg intravenous
Experimental: (§1) Licking reflex of mice on a plate heated at 55° C. according to the method of Jacob et co-workers (Arch. Int. Pharmacodyn. 122, 287-300, 1959: 133, 296-300, 1961).
(a) Potentiation of the antalgic effect of DAla2 Met Enkephalin:
(α) By the intraventricular route (ivt):
(β) By the intravenous route:
When administered by the intravenous route, the derivatives No. 2, 30 and 63 at the dose of 30 mg/kg produce a 100% increase in the licking time with respect to animals treated with DAla2 Met Enkephalin (0.3γ intraventricular).

[3] = tested on: (Met^5) enkephalin liberated by depolarisation of striatum sections; assay: Protection of endogenic enkephalins liberated by depolarisation of striatum sections; format: cell-based, rat; details: for (Met^5) liberated enkephalin: 50 mM KCl, no inhibitor: 120 ± 25
Experimental: (II) Protection of the endogenic […] liberated by depolarisation of the brain sections
Stratium sections of the rat are incubated in a medium of Krebs-Ringer and the (Met^5) enkephalin liberated by addition of 50 mM KCl is evaluated by radioimmunologic dosage (Patey and Coll., Science, 1981, 212, 1153-1155).
The higher protection of the liberated enkephalins afforded by these compounds is thence attributed to the inhibition of peptidases (probably aminopeptidases) other than those which are sensitive to thiorphan.

[4] = tested on: phenylbenzoquinone-induced pain; assay: Phenylbenzoquinone or "writhing" test; format: in vivo, mouse; details: for protection from phenylbenzoquinone-induced pain: p<0.01 versus controls
From the text: (3) Phenylbenzoquinone or "writhing" test according to the method of Siegmund and co-workers (Proc. Soc. Expert Biol. Med. 1957, 95, 729-731).
Here again, if the antinociceptive effects of these compounds are compared with those of Thiorphan, a selective enkephalinase-inhibitor, a distinctly greater maximum effect is observed. […] This more pronounced analgesic effect is attributable to an improved protection of the endogenic opioid peptides, in relation with the inhibition not only of the enkephalinase, but also of the aminopeptidases involved in their hydrolysis.

[5] = tested on: withdrawal of the tail of mice; assay: Withdrawal of the tail immersed in water heated to 48° C; format: in vivo
Experimental: (2) Test in mice of the withdrawal of the tail immersed in water heated to 48° C. according to the method of Sewell and Spencer (Neuropharmacology, 1976, 15, p. 683-688).

[6] = tested on: licking reflex of mice on a plate heated at 55° C; assay: Hot plate test: specific antalgic effect; format: in vivo; details: for antalgic effect in the hot plate test: 55° C, intravenous, in words; for ED50: hot plate 55° C, i.v.
Experimental: as §1
(b) Specific antalgic effect
By the intravenous route.

[7] = tested on: mice; assay: Subacute toxicity, intraperitoneal, three weeks
Experimental: The derivative 63 was administered by the intraperitoneal route for three weeks to mice at the dose of 50 mg/kg three times a day (150 mg/kg/day).

[8] = tested on: immobile periods of mice; details: 1 mg/kg i.v.; p<0.001; in words
From the text: Forced swimming or "Mice Despair" test according to Porsolt's method.
This test is representative of an antidepressive effect.

[9] = tested on: blood pressure; details: 10 mg/kg intravenous; in words
From the text: (VI) Hypotensive Activity
Specific enkephalin-potentiating activity, (Laubie M. Schmith H., Vincent M., Remon D. Central cardiovascular effects of Morphinometic peptides in dogs. European Journal of Pharmacology, vol. 46, 67-71, 1977).

[10] = 30 γ/mouse ivt, D Ala2 Met Enkephalin 0.3 γ/mouse
[11] = 30 mg/kg intravenous, DAla2 Met Enkephalin 10 to 30γ/mouse ivt 15 minutes later

`O=CN(O)CC(Cc1ccccc1)NC(=O)CC(=O)NCc1ccccc1` (stereo not drawn) [Derivative 71] was tested, and the IC50 [1] was 200 nM.
For “N-[2-(N-hydroxy carbamoyl) 3-phenyl propanoyl]-glycine methyl ester [Derivative 30]”, the IC50 [1] was 3 nM, the “antagonism of the potentiating effect by Naloxone” value ([2]; intraventricular) was “antagonised by Naloxone” and the “potentiation of the effect of a subactive dosage (0.3γ) of D Ala2 Met Enkephalin” value ([2]; intraventricular) was “significantly potentiated”. The “% increase in the licking time with respect to animals treated with D Ala2 Met enkephalin” value (from here on “% increase in the licking time”) [2, 10] was 320% and the “(Met^5) liberated enkephalin” value ([3]; added inhibitor 10^-7 M) was 600 ± 30 pmol/g/min.
`O=C(O)CNC(=O)C(CS)Cc1ccccc1` (stereo not drawn) [Thiorphan, reference compound] was tested, and the “elimination of the abdominal stretchings of the mouse” value ([4]; in words, thiorphan even at a heavy dose) was “never completely eliminates the abdominal stretchings”, the “(Met^5) liberated enkephalin” value ([3]; added inhibitor 10^-7 M) was 280 ± 30 pmol/g/min and the “recovery of the pentapeptide” value ([3]; in words, presence of thiorphan) was “approximately doubled”.
In the case of `O=CN(O)CC(Cc1ccccc1)NC(=O)CC(=O)O` (stereo not drawn) [Derivative 69], the IC50 [1] is reported as 7 nM.
For “N-phorphoryl L-alanine-thioproline trifluoroethyl ester [Derivative 21]”, the IC50 [1] was 8 nM, the “antagonism of the potentiating effect by Naloxone” value ([2]; intraventricular) was “antagonised by Naloxone” and the “potentiation of the effect of a subactive dosage (0.3γ) of D Ala2 Met Enkephalin” value ([2]; intraventricular) was “significantly potentiated”. The “% increase in the licking time” value ([2]; 30 γ/mouse ivt + D Ala2 Met Enkephalin 0.3 γ/mouse + Naloxone 10 mg/kg s.c.) was 18%, the “% increase in the licking time” value [2, 10] was 350% and the “(Met^5) liberated enkephalin” value ([3]; added inhibitor 10^-6 M) was 550 ± 40 pmol/g/min.
With `COC(=O)CNC(=O)[C@H](Cc1ccccc1)NP(=O)(O)O` [Derivative 2, N-phosphoryl L-phenylalanine-glycine methyl ester] the IC50 [1] was 70 nM, the “potentiation of DAla2 Met Enkephalin” value [5, 11] was “potentiate very significantly” and the “increase in the licking time with respect to animals treated with DAla2 Met Enkephalin (0.3γ intraventricular)” value (“increase … (0.3γ intraventricular)” for short) [2] was 100%. The “protection from phenylbenzoquinone-induced pain” value (shortened to “protection”) ([4]; 15 mg/kg i.v.) was “protect the treated animals from phenylbenzoquinone-induced pain”, the “antagonism of the protective effect by Naloxone” value ([4]; in words) was “antagonized by Naloxone” and the “antalgic effect in the hot plate test” value [6] was “have an antalgic effect”. It also gave an ED50 ([6]; Mus musculus, iv, read-out: ED50) of 30 mg/kg.
“D Ala2 Met Enkephalin [reference compound]” was tested, and the “activity of D Ala2 Met Enkephalin alone” value ([2]; 0.3 γ/mouse, intraventricular) was “inactive in itself”.
Work on “N-[2-(N-hydroxy carbamoyl 3-phenyl propanoyl]-glycine [Derivative 32]” yielded an IC50 [1] of 5 nM.
“N-(2-bensyloxyamino 3-phenyl propanoyl)-glycine isoamylamide [Derivative 22]” was tested, and the IC50 [1] was 100 nM, the “potentiation of DAla2 Met Enkephalin” value [5, 11] was “potentiate very significantly” and the “increase … (0.3γ intraventricular)” value [2] was 100%. For the same compound, the “protection” value ([4]; 18 mg/kg i.v.) was “protect the treated animals from phenylbenzoquinone-induced pain”, the “antagonism of the protective effect by Naloxone” value ([4]; in words) was “antagonized by Naloxone” and the “antalgic effect in the hot plate test” value [6] was “have an antalgic effect”. It also gave an ED50 [6] of 18 mg/kg.
With “N-(N-benzyloxy 3-formamido 2-benzyl propnaoyl)-glycine methyl ester [Derivative 39]” the IC50 [1] was 3 nM, the “% increase in the licking time” value [2, 10] was 300% and the “(Met^5) liberated enkephalin” value ([3]; added inhibitor 10^-7 M) was 630 ± 50 pmol/g/min. The ED50 [6] was 25 mg/kg.
`O=CN(O)CC(Cc1ccccc1)C(=O)NCC(=O)NCc1ccc(F)cc1` (stereo not drawn) [Derivative 63, N-(N-hydroxy 3-formamido 2-benzylpropanoyl)-glycine p-fluoro benzylamide] was tested, and the “weight increase rate and signs of toxicity” value ([7]; 50 mg/kg i.p. three times a day (150 mg/kg/day)) was “did not exhibit any change in the weight increase rate or any sign of toxicity” and the “weight of the organs and anatomic-pathologic examination” value ([7]; 50 mg/kg i.p. three times a day, versus solvent controls) was “no difference”.
In the case of “N-[2-(N-hydroxy β-trifluoroethyl carboxamido)3-phenyl propanoyl]-glycine [Derivative 53]”, the IC50 [1] is reported as 50 nM, the “potentiation of DAla2 Met Enkephalin” value ([5]; 5 mg/kg) is reported as “also observed” and the “duration (in seconds) of the immobile periods with respect to the controls” value [8] is reported as “significantly reduces”. The “increase … (0.3γ intraventricular)” value [2] was 100%, the “protection” value ([4]; 1 mg/kg i.v.) was “protect the treated animals from phenylbenzoquinone-induced pain” and the “antagonism of the protective effect by Naloxone” value ([4]; in words) was “antagonized by Naloxone”. For the same compound, the “reduction in the blood pressure” value [9] was “reduction in the blood pressure”, the “antalgic effect in the hot plate test” value [6] was “have an antalgic effect” and the ED50 [6] was 3 mg/kg.
`COC(=O)CC(=O)NC(Cc1ccccc1)NP(=O)(O)O` (stereo not drawn) [Derivative 4, N-phosphoryl, N'-(2-methoxycarbonylacetyl) 1,1-diamino 2-phenyl ethane] gave an IC50 [1] of 100 nM.
